The values below come from PMC7468670, “Biophysical Insight into the Interaction of Human Lysozyme with Anticancer Drug Anastrozole: A Multitechnique Approach” (The Scientific World Journal, 2020).

This experiment addresses T1, Human lysozyme (HL) (Homo sapiens, UniProt P61626).
T1 construct: gene LYZ; commercial human lysozyme (Sigma-Aldrich), dialysed; single polypeptide, no subunits; 1REX used for docking only
T1 sequence (P61626 19-148): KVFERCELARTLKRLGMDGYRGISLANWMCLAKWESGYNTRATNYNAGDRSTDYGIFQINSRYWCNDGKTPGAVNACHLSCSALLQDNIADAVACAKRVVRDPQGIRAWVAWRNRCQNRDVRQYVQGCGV
Nature of the experiment: intrinsic fluorescence quenching, modified Stern-Volmer. In kind it is binding. Particulars: 20 mM sodium phosphate pH 7.4, 310 K, 5 uM HL, excitation 280 nm; n = 1.00; double-log. An excerpt:
intrinsic fluorescence quenching, modified Stern-Volmer on Human lysozyme (HL)

For `CC(C)(C#N)c1cc(Cn2cncn2)cc(C(C)(C)C#N)c1` [anastrozole], the Kb is 9660 M⁻¹.
